According to BigSolDB 2.1:

SMILES: O=c1cc(-c2ccccc2)oc2cc(O)cc(O)c12
- solubility (mole fraction) (in DMF, 293.2 K): 0.01
- solubility (mole fraction) (in DMF, 298.2 K): 0.0131
- solubility (mole fraction) (in DMF, 303.2 K): 0.0152
- solubility (mole fraction) (in DMF, 308.2 K): 0.0229
- solubility (mole fraction) (in DMF, 313.2 K): 0.0264
- solubility (mole fraction) (in DMF, 318.2 K): 0.0328
- solubility (mole fraction) (in DMF, 323.2 K): 0.0408
- solubility (mole fraction) (in DMF, 328.2 K): 0.0479
- solubility (mole fraction) (in DMF, 333.2 K): 0.0568
- solubility (mole fraction) (in acetone, 293.2 K): 0.00128
- solubility (mole fraction) (in acetone, 298.2 K): 0.00143
- solubility (mole fraction) (in acetone, 303.2 K): 0.00161
- solubility (mole fraction) (in acetone, 308.2 K): 0.00176
- solubility (mole fraction) (in acetone, 313.2 K): 0.00205
- solubility (mole fraction) (in acetone, 318.2 K): 0.00226
- solubility (mole fraction) (in acetone, 323.2 K): 0.00243
- solubility (mole fraction) (in acetone, 328.2 K): 0.00281
- solubility (mole fraction) (in ethanol, 293.2 K): 0.000455
- solubility (mole fraction) (in ethanol, 298.2 K): 0.000505
- solubility (mole fraction) (in ethanol, 303.2 K): 0.000637
- solubility (mole fraction) (in ethanol, 308.2 K): 0.000709
- solubility (mole fraction) (in ethanol, 313.2 K): 0.000822
- solubility (mole fraction) (in ethanol, 318.2 K): 0.000903
- solubility (mole fraction) (in ethanol, 323.2 K): 0.00113
- solubility (mole fraction) (in ethanol, 328.2 K): 0.00144
- solubility (mole fraction) (in ethanol, 333.2 K): 0.00171
- solubility (mole fraction) (in ethyl acetate, 293.2 K): 0.000716
- solubility (mole fraction) (in ethyl acetate, 298.2 K): 0.00082
- solubility (mole fraction) (in ethyl acetate, 303.2 K): 0.000893
- solubility (mole fraction) (in ethyl acetate, 308.2 K): 0.00101
- solubility (mole fraction) (in ethyl acetate, 313.2 K): 0.00113
- solubility (mole fraction) (in ethyl acetate, 318.2 K): 0.00134
- solubility (mole fraction) (in ethyl acetate, 323.2 K): 0.00144
- solubility (mole fraction) (in ethyl acetate, 328.2 K): 0.00163
- solubility (mole fraction) (in ethyl acetate, 333.2 K): 0.00176
- solubility (mole fraction) (in isopropanol, 293.2 K): 0.000512
- solubility (mole fraction) (in isopropanol, 298.2 K): 0.000614
- solubility (mole fraction) (in isopropanol, 303.2 K): 0.000707
- solubility (mole fraction) (in isopropanol, 308.2 K): 0.000836
- solubility (mole fraction) (in isopropanol, 313.2 K): 0.00104
- solubility (mole fraction) (in isopropanol, 318.2 K): 0.00121
- solubility (mole fraction) (in isopropanol, 323.2 K): 0.0014
- solubility (mole fraction) (in isopropanol, 328.2 K): 0.00185
- solubility (mole fraction) (in isopropanol, 333.2 K): 0.00213
- solubility (mole fraction) (in methanol, 293.2 K): 0.000226
- solubility (mole fraction) (in methanol, 298.2 K): 0.000238
- solubility (mole fraction) (in methanol, 303.2 K): 0.000299
- solubility (mole fraction) (in methanol, 308.2 K): 0.000324
- solubility (mole fraction) (in methanol, 313.2 K): 0.000406
- solubility (mole fraction) (in methanol, 318.2 K): 0.000453
- solubility (mole fraction) (in methanol, 323.2 K): 0.000576
- solubility (mole fraction) (in methanol, 328.2 K): 0.000711
- solubility (mole fraction) (in methanol, 333.2 K): 0.000813
- solubility (mole fraction) (in n-butanol, 293.2 K): 0.000586
- solubility (mole fraction) (in n-butanol, 298.2 K): 0.000663
- solubility (mole fraction) (in n-butanol, 303.2 K): 0.000833
- solubility (mole fraction) (in n-butanol, 308.2 K): 0.000981
- solubility (mole fraction) (in n-butanol, 313.2 K): 0.00115
- solubility (mole fraction) (in n-butanol, 318.2 K): 0.00138
- solubility (mole fraction) (in n-butanol, 323.2 K): 0.0016
- solubility (mole fraction) (in n-butanol, 328.2 K): 0.00195
- solubility (mole fraction) (in n-butanol, 333.2 K): 0.00229
- solubility (mole fraction) (in n-hexane, 293.2 K): 1.4e-07
- solubility (mole fraction) (in n-hexane, 298.2 K): 2.95e-07
- solubility (mole fraction) (in n-hexane, 303.2 K): 3.8e-07
- solubility (mole fraction) (in n-hexane, 308.2 K): 4.5e-07
- solubility (mole fraction) (in n-hexane, 313.2 K): 6.78e-07
- solubility (mole fraction) (in n-hexane, 318.2 K): 1.08e-06
- solubility (mole fraction) (in n-hexane, 323.2 K): 1.25e-06
- solubility (mole fraction) (in n-hexane, 328.2 K): 1.7e-06
- solubility (mole fraction) (in n-hexane, 333.2 K): 2.21e-06
- solubility (mole fraction) (in n-propanol, 293.2 K): 0.000482
- solubility (mole fraction) (in n-propanol, 298.2 K): 0.000569
- solubility (mole fraction) (in n-propanol, 303.2 K): 0.000724
- solubility (mole fraction) (in n-propanol, 308.2 K): 0.000837
- solubility (mole fraction) (in n-propanol, 313.2 K): 0.000971
- solubility (mole fraction) (in n-propanol, 318.2 K): 0.00123
- solubility (mole fraction) (in n-propanol, 323.2 K): 0.00147
- solubility (mole fraction) (in n-propanol, 328.2 K): 0.0017
- solubility (mole fraction) (in n-propanol, 333.2 K): 0.00195
- solubility (mole fraction) (in water, 293.2 K): 4.61e-09
- solubility (mole fraction) (in water, 298.2 K): 8.63e-09
- solubility (mole fraction) (in water, 303.2 K): 1.26e-08
- solubility (mole fraction) (in water, 308.2 K): 2.57e-08
- solubility (mole fraction) (in water, 313.2 K): 3.96e-08
- solubility (mole fraction) (in water, 318.2 K): 4.82e-08
- solubility (mole fraction) (in water, 323.2 K): 8.41e-08
- solubility (mole fraction) (in water, 328.2 K): 1.28e-07
- solubility (mole fraction) (in water, 333.2 K): 1.88e-07
